Experiment [1] concerns Ba/F3 HER2 A775_G776insYVMA. The experiment can be described thus: Growth inhibition of Ba/F3 HER2 mutant cells (CellTiter-Glo). Conditions: Mus musculus, BaF3, 72 hours. Type of experiment: cell-based. Here is the method:
The activity of the compounds of the present invention against Ba/F3 HER2 A775_G776insYVMA and Ba/F3 HER2 G776delinsVC mutant cell lines was measured using the CellTiter-Glo system purchased from Promega as follows. CellTiter-Glo assay is a method to measure cell viability by monitoring ATP present in cells. Ba/F3 HER2 A775_G776insYVMA and Ba/F3 HER2 G776delinsVC mutant cell lines were purchased from Crown Biosciences. Ba/F3 HER2 A775_G776insYVMA and Ba/F3 HER2 G776delinsVC mutant cell lines were cultured in RPMI containing 10% FBS and 1% penicillin-streptomycin with 1 μg/mL of puromycin in a CO2 incubator at 37° C.
(§1) The analysis of the ability of the compounds to inhibit the growth of HER2 mutant cells was performed according to the following method. 1,000 cells/100 μL were seeded in a 96-well cell culture plate, and 24 hours thereafter, the compounds represented by Formula 1 were treated with 0 μM, 0.01 μM, 0.03 μM, 0.1 μM, 0.3 μM, 1 μM, 3 μM, and 10 μM. After reacting for 72 hours, the plate treated with the compounds were left at room temperature for 30 minutes, 100 μL of a reagent was added thereto, and then shaken at room temperature for 10 minutes. Finally, using equipment, the ratio of […] was measured to confirm the cell growth inhibition ability of the compounds. The measured values at 8 compound concentrations were analyzed using the Prism program (version 5.01, Graphpad Software, Inc.), and the IC50 (μM) values, which are measures of the compounds' inhibitory ability, were calculated.

Experiment [2] has as its target HER2 A775_G776insYVMA (Homo sapiens (Human), UniProt P04626, INS775YVMA). The experiment can be described thus: HTRF inhibitory activity against HER2 mutant enzyme. Conditions: recombinant enzyme, 37° C. for 2 hours. The class given is biochemical. The essentials:
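Recombinant HER2 A775_G776insYVMA preincubated with compound, then […] and biotinylated peptide ([…]) added; 2 h at 37 °C in Tris-HCl pH 7.5 buffer with MgCl2, DTT. HTRF detection (Eu anti-phosphotyrosine/streptavidin-XL665); IC50 from 7 concentrations.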

For experiment [3], the system named is Ba/F3 EGFR V769_D770insASV. The experiment can be described thus: Growth inhibition of Ba/F3 EGFR mutant cells (CellTiter-Glo). Conditions: 72 hours. Type of experiment: cell-based. The procedure:
(§2) The activity of the compounds of the present invention against Ba/F3 EGFR V769_D770insASV and Ba/F3 EGFR D770_N771insSVD mutant cell lines was measured using the CellTiter-Glo system purchased from Promega as follows. CellTiter-Glo assay is a method to measure cell viability by monitoring ATP present in cells. Ba/F3 EGFR V769_D770insASV and Ba/F3 EGFR D770_N771insSVD mutant cell lines were purchased from Crown Biosciences. Ba/F3 EGFR V769_D770insASV and Ba/F3 EGFR D770_N771insSVD mutant cell lines were cultured in RPMI containing 10% FBS and 1% penicillin-streptomycin with 1 μg/mL of puromycin in a 5% CO2 incubator at 37° C.
as §1, with “growth of EGFR mutant cells” for “growth of HER2 mutant cells”, “μM. After incubating for 72” for “μM. After reacting for 72”, “reagent was further added thereto,” for “reagent was added thereto,”
Background: ATP-based viability assays read luminescence as a measure of living cells.

Experiment [4] has as its system Ba/F3 EGFR D770_N771insSVD. The experiment is described as above. Type of experiment: cell-based. Conditions: Ba/F3 EGFR-D770-N771ins_SVD, 72 hours. The procedure:
as §2
as §1, with “growth of EGFR mutant cells” for “growth of HER2 mutant cells”, “μM. After incubating for 72” for “μM. After reacting for 72”, “reagent was further added thereto,” for “reagent was added thereto,”

For experiment [5], the target named is EGFR A763_Y764insFHEA (Homo sapiens (Human), UniProt P00533, INS763FHEA). Briefly: HTRF inhibitory activity against EGFR mutant enzyme (EGFR A763_Y764insFHEA). Type of experiment: biochemical. Conditions: recombinant enzyme, 37° C. for 2 hours. The method, boiled down:
(§3)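 IC50 was derived from 7 concentrations by HTRF: Eu-anti-pTyr and streptavidin-XL665 for 1 h at room temperature, with the 615/665 nm ratio read. The kinase reaction ran 2 h at 37 °C in Tris pH 7.5 buffer with ATP (stated 50 mM) and biotinylated peptide (0.5 mM). Enzyme was preincubated with compound before substrate was added.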
(In general: Time-resolved FRET reads energy transfer from a long-lived donor to a nearby acceptor.)

In experiment [6] the target is EGFR del19 (Homo sapiens (Human), UniProt P00533, DEL746-750). The experiment can be described thus: HTRF inhibitory activity against EGFR mutant enzyme (EGFR del19). Type of experiment: biochemical. Conditions: recombinant enzyme, 37° C. for 2 hours. The essentials: as §3
Sequence of EGFR del19 (P00533 other isoform, or with tags, fused parts or gaps del 1-668/del 746-750 limits assumed): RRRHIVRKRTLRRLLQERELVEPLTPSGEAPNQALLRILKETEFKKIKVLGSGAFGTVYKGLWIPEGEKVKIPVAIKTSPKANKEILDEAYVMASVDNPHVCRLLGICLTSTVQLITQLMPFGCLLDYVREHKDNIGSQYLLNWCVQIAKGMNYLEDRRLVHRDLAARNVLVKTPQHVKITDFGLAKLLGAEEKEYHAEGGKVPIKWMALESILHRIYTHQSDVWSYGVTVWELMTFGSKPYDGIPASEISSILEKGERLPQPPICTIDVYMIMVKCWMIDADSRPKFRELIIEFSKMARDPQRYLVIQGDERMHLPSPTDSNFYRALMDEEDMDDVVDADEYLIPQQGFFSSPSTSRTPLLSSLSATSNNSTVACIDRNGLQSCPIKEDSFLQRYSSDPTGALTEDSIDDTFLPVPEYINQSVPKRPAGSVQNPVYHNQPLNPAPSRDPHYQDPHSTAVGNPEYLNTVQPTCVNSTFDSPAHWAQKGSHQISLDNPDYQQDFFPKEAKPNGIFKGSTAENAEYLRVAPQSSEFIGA

Here are results for twelve compounds from US20240343694A1, “PYRIMIDINE DERIVATIVE, METHOD FOR PREPARING SAME, AND PHARMACEUTICAL COMPOSITION FOR PREVENTING OR TREATING CANCER COMPRISING SAME AS ACTIVE INGREDIENT” (KOREA RESERARCH INSTITUTE OF CHEMICAL TECHNOLOGY, priority 2021, published 2024).

Broadly, the IC50 is the concentration at which inhibition is half-maximal.

Sequence of EGFR A763_Y764insFHEA (P00533 other isoform, or with tags, fused parts or gaps del 1-694/ins FHEA behind 763 limits assumed): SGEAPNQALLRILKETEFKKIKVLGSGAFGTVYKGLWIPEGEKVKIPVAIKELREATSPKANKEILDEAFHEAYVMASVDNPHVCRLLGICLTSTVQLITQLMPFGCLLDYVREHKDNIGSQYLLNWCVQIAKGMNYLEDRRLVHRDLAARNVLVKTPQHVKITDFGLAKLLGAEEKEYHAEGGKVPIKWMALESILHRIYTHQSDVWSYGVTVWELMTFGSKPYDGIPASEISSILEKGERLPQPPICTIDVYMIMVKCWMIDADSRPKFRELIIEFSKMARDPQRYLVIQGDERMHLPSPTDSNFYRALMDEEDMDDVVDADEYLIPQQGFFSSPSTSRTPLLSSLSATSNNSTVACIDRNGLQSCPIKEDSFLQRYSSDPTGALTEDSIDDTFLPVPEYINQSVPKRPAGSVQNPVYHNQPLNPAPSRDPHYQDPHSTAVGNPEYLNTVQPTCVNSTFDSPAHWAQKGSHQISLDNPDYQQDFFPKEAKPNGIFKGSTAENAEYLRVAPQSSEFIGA
Sequence of HER2 A775_G776insYVMA (P04626 other isoform, or with tags, fused parts or gaps del 1-675/ins YVMA behind 775 limits assumed): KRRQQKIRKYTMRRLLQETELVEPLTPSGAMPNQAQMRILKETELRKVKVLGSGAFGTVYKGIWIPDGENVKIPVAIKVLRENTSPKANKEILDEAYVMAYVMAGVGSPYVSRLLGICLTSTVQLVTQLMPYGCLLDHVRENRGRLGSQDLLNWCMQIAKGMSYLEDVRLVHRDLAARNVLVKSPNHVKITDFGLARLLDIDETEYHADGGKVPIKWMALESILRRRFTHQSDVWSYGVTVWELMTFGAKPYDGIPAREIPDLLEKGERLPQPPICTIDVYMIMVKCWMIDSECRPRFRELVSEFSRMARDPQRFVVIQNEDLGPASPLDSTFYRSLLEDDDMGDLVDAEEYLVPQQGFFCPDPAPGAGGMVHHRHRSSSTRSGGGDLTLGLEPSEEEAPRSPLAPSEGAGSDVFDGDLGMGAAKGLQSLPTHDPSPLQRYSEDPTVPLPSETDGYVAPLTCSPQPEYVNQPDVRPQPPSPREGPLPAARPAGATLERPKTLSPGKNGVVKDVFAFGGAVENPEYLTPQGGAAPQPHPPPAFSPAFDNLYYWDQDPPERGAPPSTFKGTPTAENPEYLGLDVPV

Regarding `C=CC(=O)Nc1cc(Nc2ncc(Cl)c(Nc3cccc4c3N(S(C)(=O)=O)CCC4)n2)c(OC)cc1N(C)CCN1CCOCC1` [Example 53, N-(5-((5-chloro-4-((1-(methylsulfonyl)-1,2,3,4-tetrahydroquinolin-8-yl)amino)pyrimidin-2-yl)amino)-4-methoxy-2-(methyl(2-morpholinoethyl)amino)phenyl)acrylamide], the IC50 in experiment [1] was 10 to 30 nM; in experiment [2], 10 nM; in experiment [3], 10 to 30 nM; in experiment [4] it was 10 to 30 nM.
Turning to `C=CC(=O)Nc1cc(Nc2ncc(C(=O)OC(C)C)c(Nc3cccc4c3N(S(C)(=O)=O)CC4)n2)c(OC)cc1N(C)CCN(C)C` [Example 61, isopropyl 2-((5-acrylamido-4-((2-(dimethylamino)ethyl)(methyl)amino)-2-methoxyphenyl)amino)-4-((1-(methylsulfonyl)indolin-7-yl)amino)pyrimidin-5-carboxylate], the IC50 is under 1 nM in experiment [5]; 10 to 30 nM in experiment [1]; under 1 nM in experiment [6]; 1 nM in experiment [2]; 10 to 30 nM in experiment [3]; 10 to 30 nM in experiment [4].
In the case of `C=CC(=O)Nc1cc(Nc2ncc(C#N)c(Nc3cccc4c3N(S(C)(=O)=O)CC4)n2)c(OC)cc1N(C)CCN(C)C` [Example 62, N-(5-((5-cyano-4-((1-(methylsulfonyl)indolin-7-yl)amino)pyrimidin-2-yl)amino)-2-((2-(dimethylamino)ethyl)(methyl)amino)-4-methoxyphenyl)acrylamide], the IC50 in experiment [1] is 10 to 30 nM; in experiment [2], 3 nM; in experiment [3], 10 to 30 nM; in experiment [4], 10 to 30 nM.
Take `C=CC(=O)Nc1cc(Nc2ncc(Cl)c(Nc3cccc4c3N(S(C)(=O)=O)CC4)n2)c(OC)cc1OCCN(C)C` [Example 63, N-(5-((5-chloro-4-((1-(methylsulfonyl)indolin-7-yl)amino)pyrimidin-2-yl)amino)-2-(2-(dimethylamino)ethoxy)-4-methoxyphenyl)acrylamide]: the IC50 in experiment [1] is 10 to 30 nM; in experiment [2], under 1 nM; in experiment [3] it was 10 to 30 nM; in experiment [4], 10 to 30 nM.
Turning to `C=CC(=O)Nc1cc(Nc2ncc(Cl)c(Nc3cccc4c3N(S(C)(=O)=O)CC4)n2)c(OC)cc1N(C)CCN1CCOCC1` [Example 64, N-(5-((5-chloro-4-((1-(methylsulfonyl)indolin-7-yl)amino)pyrimidin-2-yl)amino)-4-methoxy-2-(methyl(2-morpholinoethyl)amino)phenyl)acrylamide], the 50% inhibitory concentration (IC50) in experiment [5] is under 1 nM; in experiment [1], 10 to 30 nM; in experiment [6] it was under 1 nM; in experiment [2], 3 nM; in experiment [3], 30 to 50 nM; in experiment [4], 30 to 50 nM.
For `C=CC(=O)Nc1cc(Nc2ncc(C(F)(F)F)c(Nc3cccc4c3N(S(C)(=O)=O)CC4)n2)c(OC)cc1N(C)CCN(C)C` [Example 65, N-(2-((2-(dimethylamino)ethyl)(methyl)amino)-4-methoxy-5-((4-((1-(methylsulfonyl)indolin-7-yl)amino)-5-(trifluoromethyl)pyrimidin-2-yl)amino)phenyl)acrylamide], the IC50 was under 1 nM in experiment [5]; 10 to 30 nM in experiment [1]; under 1 nM in experiment [6]; 15 nM in experiment [2]; 10 to 30 nM in experiment [3]; 10 to 30 nM in experiment [4].
Consider `C=C(F)C(=O)Nc1cc(Nc2ncc(Cl)c(Nc3cccc4c3N(S(C)(=O)=O)CC4)n2)c(OC)cc1N(C)CCN(C)C` [Example 66, N-(5-((5-chloro-4-((1-(methylsulfonyl)indolin-7-yl)amino)pyrimidin-2-yl)amino)-2-((2-(dimethylamino)ethyl)(methyl)amino)-4-methoxyphenyl)-2-fluoroacrylamide], for which the IC50 in experiment [5] is under 1 nM; in experiment [1], 10 to 30 nM; in experiment [6] it was under 1 nM; in experiment [2] it was 5 nM; in experiment [3], 10 to 30 nM; in experiment [4] it was 10 to 30 nM.
For the compound `C=CC(=O)Nc1cc(Nc2ncc(Cl)c(Nc3cccc4c3N(S(C)(=O)=O)CC4)n2)c(OC)cc1N(C)CCN1CCCC1` [Example 74, N-(5-((5-chloro-4-((1-(methylsulfonyl)indolin-7-yl)amino)pyrimidin-2-yl)amino)-4-methoxy-2-(methyl(2-(pyrrolidin-1-yl)ethyl)amino)phenyl)acrylamide], the half-maximal inhibitory concentration (IC50) is under 1 nM in experiment [5]; under 1 nM in experiment [6]; under 1 nM in experiment [2]; under 10 nM in experiment [3]; under 10 nM in experiment [4].
Turning to `C=CC(=O)Nc1cc(Nc2ncc(Cl)c(Nc3ccc(C)cc3N(C)S(C)(=O)=O)n2)c(OC)cc1N(C)CCN1CCCC1` [Example 76, N-(5-((5-chloro-4-((4-methyl-2-(N-methylmethylsulfonamido)phenyl)amino)pyrimidin-2-yl)amino)-4-methoxy-2-(methyl(2-(pyrrolidin-1-yl)ethyl)amino)phenyl)acrylamide], the IC50 in experiment [5] was under 1 nM; in experiment [6], under 1 nM; in experiment [2], 1 nM; in experiment [3], under 10 nM; in experiment [4] it was under 10 nM.
In the case of `C=CC(=O)Nc1cc(Nc2ncc(Cl)c(Nc3cccc4c3N(S(C)(=O)=O)CC4)n2)c(OC)cc1OCCN1CCCC1` [Example 79, N-(5-((5-chloro-4-((1-(methylsulfonyl)indolin-7-yl)amino)pyrimidin-2-yl)amino)-4-methoxy-2-(2-(pyrrolidin-1-yl)ethoxy)phenyl)acrylamide], the concentration for half-maximal inhibition (IC50) is under 1 nM in experiment [5]; under 1 nM in experiment [6]; 1 nM in experiment [2]; 10 to 30 nM in experiment [3]; under 10 nM in experiment [4].
Take `C=CC(=O)Nc1cc(Nc2ncc(Cl)c(Nc3cccc4c3N(S(C)(=O)=O)CC4)n2)c(OC)cc1N(C)CCN1CCC1` [Example 80, N-(2-((2-(azetidin-1-yl)ethyl)(methyl)amino)-5-((5-chloro-4-((1-(methylsulfonyl)indolin-7-yl)amino)pyrimidin-2-yl)amino)-4-methoxyphenyl)acrylamide]: the 50% inhibitory concentration (IC50) in experiment [5] was under 1 nM; in experiment [6], under 1 nM; in experiment [2], 1 nM; in experiment [3] it was under 10 nM; in experiment [4], under 10 nM.
As to `C=CC(=O)Nc1cc(Nc2ncc(Cl)c(Nc3ccc(C)cc3N(C)S(C)(=O)=O)n2)c(OC)cc1N(C)CCN1CCC1` [Example 82, N-(2-((2-(azetidin-1-yl)ethyl)(methyl)amino)-5-((5-chloro-4-((4-methyl-2-(N-methylmethylsulfonamido)phenyl)amino)pyrimidin-2-yl)amino)-4-methoxyphenyl)acrylamide], the IC50 was under 1 nM in experiment [5]; under 1 nM in experiment [6]; 2 nM in experiment [2]; under 10 nM in experiment [3]; under 10 nM in experiment [4].
